According to patent publication US20240262805A1, “METHOD FOR PRODUCING COMPOUND OR PHARMACEUTICALLY ACCEPTABLE SALT THEREOF” (EA PHARMA CO., LTD., priority 2021, published 2024):
Counter-ions that a name gives are not always drawn.

Tests used:
Assay type in all cases: physicochemical
[1] = Measurement of solubility at pH 6.9 (saturated solution, HPLC); conditions: second dissolution test solution (pH 6.9), shaken at 20° C. for 24 hours, filtrate determined by HPLC
Method: Specifically, the crystal B can achieve a solubility at pH 6.9 of 50 μg/ml or more. Here, the solubility at pH 6.9 is measured by HPLC analysis. Specifically, the solubility at pH 6.9 can be measured in the method described below in Examples.
Regarding the crystals B and C, the solubility at pH 6.9 was measured. Specifically, a sample was excessively added to a second dissolution test solution (pH 6.9) (manufactured by Kanto Chemical Co., Inc.), and the mixture was shaken at 20° C. for 24 hours to produce a saturated solution. After the undissolved sample was removed with a filter, the amount of the compound in the filtrate was determined by HPLC, and the solubility […] was calculated.

[2] = Measurement of moisture absorption (automatic gas and vapor adsorption analyzer); conditions: BELSORP Aqua3 automatic gas and vapor adsorption analyzer
Method: Regarding the crystals B and C, the moisture absorption was measured by using an automatic gas and vapor adsorption analyzer (BELSORP Aqua3 manufactured by MicrotracBEL Corp.)

[3] = Deliquescence on standing at 60% RH and 25° C.; conditions: left in an environment of 60% RH and 25° C.; initially white powder
Method: In reference to the description on page 56 in Patent Literature 1 (International Publication No. WO2017/135472), the compound 10-BoC was deprotected. Specifically, the compound 10-BoC was dissolved in ethyl acetate and the reaction liquid was cooled to 5° C. After that, a hydrochloric acid/ethyl acetate solution was added dropwise thereto, followed by stirring at 20° C. for 16 hours. After that, the solid was filtered out and dried under reduced pressure to obtain a compound 16-HCl (a hydrochloric acid salt of the compound 16). The obtained compound was initially white powder, but when left in an environment of 60% RH and 25° C., was completely deliquesced within 24 hours.

In the case of Cc1cc(=O)n(-c2ccc(C[C@H](NC(=O)c3cc(F)c(NS(=O)(=O)c4ccc(NC(=O)C(C)(C)C)cc4)cc3F)C(=O)OCC(C)C)cn2)c(=O)n1C [crystal B, isobutyl(S)-2-(2,5-difluoro-4-((4-pivalamidophenyl)sulfonamido)benzamide)-3-(6-(3,4-dimethyl-2,6-dioxo-3,6-dihydropyrimidin-1(2H)-yl)pyridin-3-yl)propanoate], the “solubility at pH 6.9” value [1] is reported as 150 μg/ml and the “moisture absorption (at maximum)” value [2] is reported as at most 1.35%.
In the case of Cc1cc(=O)n(-c2ccc(C[C@H](NC(=O)c3cc(F)c(NS(=O)(=O)c4ccc(NC(=O)C(C)(C)C)cc4)cc3F)C(=O)OCC(C)C)cn2)c(=O)n1C [crystal C, isobutyl(S)-2-(2,5-difluoro-4-((4-pivalamidophenyl)sulfonamido)benzamide)-3-(6-(3,4-dimethyl-2,6-dioxo-3,6-dihydropyrimidin-1(2H)-yl)pyridin-3-yl)propanoate], the “solubility at pH 6.9” value [1] is reported as 25.0 μg/ml and the “moisture absorption (at maximum)” value [2] is reported as at most 0.24%.
With Cc1cc(=O)n(-c2ccc(C[C@H](N)C(=O)OCC(C)C)cn2)c(=O)n1C [compound 16-HCl] the “time until completely deliquesced” value [3] was at most 24 h.
